Reference: US12571805B2, “Methods and compositions for determining OxPL-associated diseases and disorders” (The Regents of the University of California, priority 2019, dated 2026)

Columns and labels:
Recombinant human MnSOD = molecular target: T1, Recombinant human MnSOD (Homo sapiens, UniProt P04179); assay: In vitro modification of SOD and SOD activity; assay type: biochemical; conditions: POVPC molar ratio 1:40, 37° C. overnight, vs native MnSOD
T1 construct: purchased Abcam ab82656
T1 sequence (P04179 25-222): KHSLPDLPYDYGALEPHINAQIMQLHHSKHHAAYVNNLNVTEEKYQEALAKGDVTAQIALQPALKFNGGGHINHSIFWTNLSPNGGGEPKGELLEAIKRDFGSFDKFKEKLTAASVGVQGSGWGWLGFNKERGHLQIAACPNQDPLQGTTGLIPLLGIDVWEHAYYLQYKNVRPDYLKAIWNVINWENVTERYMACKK
Description: In vitro modification of SOD and SOD activity: Recombinant human MnSOD (Abcam, ab82656) was incubated with POVPC (Avanti Polar Lipids, 870606) (molar ration 1:40) or vehicle at 37° C. overnight. 300 μg/mL NaBH3CN was added to stabilize reversible OxPL adducts. Both native and POVPC modified MnSOD were dialyzed extensively against PBS. SOD activity of recombinant and modified MnSOD and liver and cell lysates was measured with Superoxide Dismutase Activity Assay Kit (Abcam) according to the manufacturer's instruction.

primary hepatocytes = assay: OxPAPC treatment of primary hepatocytes: ROS, mitochondrial membrane potential, fatty acid oxidation, SOD activity; assay type: cell-based, mouse; conditions: 200 μM MnTBAP 1 hour, then OxPAPC 100 μg/mL 4 hours, Ldlr−/− hepatocytes
Description: Primary hepatocyte isolation: Primary hepatocytes were isolated from 6-week-old Ldlr^−/− and E06-scFvLdlr^−/− mice by a 2-step collagenase perfusion method. Briefly, HBSS (Life Technologies Co.; no Calcium and Magnesium, 0.5 mM EDTA, 25 mM HEPES) was used to perfuse liver at 10 mL/min speed until the liver turns into pale. Afterward, the liver was perfused with HBSS digestion buffer (Life Technologies Co.; 30 mg/100 mL collagenase I, 2 tablet/100 mL protease inhibitor) at 15 mL/min speed for 18 min. After sequential flows, cells were smashed through 100 μm strainer and washed with Williams' Medium E (Gibco, Grand Island, NY). Hepatocytes were isolated by density gradient centrifugation using percoll (Pharmacia, Sweden). Hepatocytes with 95% viability were cultured in Williams' Medium E supplemented with 5% serum, 0.5% penicillin/streptomycin and 15 mM HEPES at 37° C. in a 5% CO2 incubator overnight before use in experimentation.
ROS and Mitochondrial membrane potential measurement: Total ROS was determined with Total ROS detection Kit (ENZ-51011 Enzo Life Sciences Inc.) and mitochondrial ROS levels using MitoSOX (Invitrogen) following the manufacturers' instructions. Mitochondrial membrane potential (Ψm) was measured using TMRM as previously described (Shimada et al., 2012).
Ex vivo/in vitro fatty acid oxidation assay: Liver or adipose tissues were dissected, weighted, quickly rinsed in PBS. Minced tissues were placed in 96-well tissue culture plate. […] Fatty Acid Oxidation was measured with combination of Fatty Acid Oxidation Assay Kit (Abcam) and Oxygen Consumption Assay Kit (Abcam) according to the manufacturer's instruction. […] Fluorescence was measured at 37° C. for 30 min by Tecan Infinite M200 Pro.
In vitro modification of SOD and SOD activity: Recombinant human MnSOD (Abcam, ab82656) was incubated with POVPC (Avanti Polar Lipids, 870606) (molar ration 1:40) or vehicle at 37° C. overnight. […] SOD activity of recombinant and modified MnSOD and liver and cell lysates was measured with Superoxide Dismutase Activity Assay Kit (Abcam) according to the manufacturer's instruction.

| Compound | MnSOD activity of POVPC modified MnSOD (Recombinant human MnSOD) | OxPL-diminished mitochondrial membrane potential (primary hepatocytes) | mitochondrial ROS accumulation (primary hepatocytes) | total ROS accumulation (primary hepatocytes) |
| --- | --- | --- | --- | --- |
| CCCCCCCCCCCCCCCC(=O)OC[C@H](COP(=O)([O-])OCC[N+](C)(C)C)OC(=O)CCCC=O [POVPC, 1-palmitoyl-2-(5′-oxo-valeroyl)-sn-glycero-3-phosphocholine] | significantly decreased activity | – | – | – |
| O=C(O)c1ccc(/C2=C3\C=CC(=N3)/C(c3ccc(C(=O)O)cc3)=c3/cc/c4[n]3[Mn]([Cl])[n]3c2ccc3/C(c2ccc(C(=O)O)cc2)=C2/C=CC(=N2)\C=4c2ccc(C(=O)O)cc2)cc1 [MnTBAP] | – | restored | abrogated | abrogated |
